We go through one substance from patent US12662530B2, “Anti-ADM-antibodies binding to the free N-terminus for accelerated transition of ADM-Gly to bio-ADM in patients with ADM-Gly/ bio-ADM ratio above a threshold and combination with vitamin C” (SphingoTec GmbH, priority 2020, dated 2026).

One data set deals with recombinant human PAM. Nature of the data set: Formation of bio-ADM from ADM-Gly by recombinant human PAM. In kind it is biochemical. How it is done:
The formation of bio-ADM from c-terminally glycinated 1-53 Adrenomedullin (ADM-Gly) by recombinant human PAM and the influence of the N-terminal anti-Adrenomedullin antibodies on the bio-ADM formation from ADM-Gly by PAM was investigated.
In a first step, 200 μl per well ADM-Gly (50 ng/mL) dissolved in buffer (300 mM potassium-phosphate, 100 mM NaCl, 10 mM Na-EDTA, 5 g/L BSA, pH 7.0) was added to microtiter plate wells that were precoated with an anti-MR-ADM antibody, and were incubated for 1 h at 22° C. under agitation (600 rpm). Unbound material was removed by washing. In a second step, varying concentrations (0-100 μg/mL) of either N-terminal- (HAM8101), C-terminal anti-Adrenomedullin antibody specifically blocking the glycinated C-terminus of ADM-Gly or an unspecific antibody (control antibody) was added to the wells (200 μl per well) for 1 h at 22° C. under agitation (600 rpm). The respective antibodies were diluted in buffer as described above. Unbound antibodies were removed by washing. […] After a final washing step, the remaining chemiluminescence was measured for 1 s per well with a Centro LB 960 microtiter plate luminescence reader (Berthold Technologies). To evaluate the velocity of the enzyme PAM, the signal for bio-ADM measured at t=0 minutes was subtracted from the signal for bio-ADM at t=40 minutes for each antibody concentration. […]

Data set [1] can be described thus: Single escalating i.v. doses in healthy male subjects (phase I): ADM values and safety. In kind it is in vivo, human. The procedure:
The study was described in Geven et al. (Geven et al. 2017. Intensive Care Med Exp 5 (Suppl 2): 0427). Briefly, the study was conducted in healthy male subjects as a randomized, double-blind, placebo-controlled, study with single escalating doses of NT-H antibody (HAM8101) administered as intravenous (i.v.) infusion in 3 sequential groups of 8 healthy male subjects each (1st group 0.5 mg/kg, 2nd group 2 mg/kg, 3rd group 8 mg/kg) of healthy male subjects (n=6 active, n=2 placebo for each group). The main inclusion criteria were written informed consent, age 18-35 years, agreement to use a reliable way of contraception and a BMI between 18 and 30 kg/m^2. Subjects received a single i.v. dose of NT-H antibody (HAM8101) (0.5 mg/kg; 2 mg/kg; 8 mg/kg) or placebo by slow infusion over a 1-hour period in a research unit.

Data set [2] concerns ADM-Gly to bio-ADM conversion. In kind it is in vivo. The settings on record: for ADM-Gly/bioADM Ratio: Table 4, n 9. The source says: ADM-Gly was quantified as based on Weber et al. (Weber et al. 2017. JALM 2(2): 222-233) for bioactive ADM with the following modifications: the tracer-antibody used for ADM-Gly detection, labelled with MACN-acridinium-NHS, was directed to the C-terminal glycine of ADM-Gly. The assay was calibrated with synthetic ADM-Gly. […] All determined ADM-Gly concentrations were corrected for cross-reactivity as follows: For each ADM-Gly quantification additional quantification of bio-ADM in corresponding samples was performed using the Sphingotest® bio-ADM immunoassay. The corresponding bio-ADM values were used to determine the signal (RLU) generated with the antibody directed to C-terminal glycine of ADM on a bio-ADM calibration curve. The determined signal (RLU) was used to calculate the false-positive ADM-Gly concentration (pg/mL) using the ADM-Gly calibration curve. This concentration was subtracted from the initially determined ADM-Gly concentration. […]
(§1) Critically ill subjects were from the AdrenOSS-I cohort described in example 7. Healthy and healthy HAM8101 treated subjects were from the study cohort described in example 6 (Geven et al. 2017. Intensive Care Med Exp 5 (Suppl 2): 0427). Bio-ADM was determined as described by Weber et al., 2017. ADM-Gly was determined as described in example 4.

In another data set the test system is MR-proADM/bio-ADM ratio. In words: MR-proADM/bio-ADM ratio in samples of healthy subjects after administration. In kind it is in vivo, human. Particulars: Table 5, n 18. The procedure: as §1
The same patients as described in example 8 were also analysed for their MR-proADM/ADM-NH2 ratio.

The test system of a further data set is native PAM. Nature of the data set: ADM maturation activity (AMA) of native PAM in Li-Heparin plasma with antibody and varying L-ascorbate. In kind it is biochemical, human. Particulars: FIG. 15. The procedure: A serial antibody-dilution with concentrations of 0, 5, 10, 50, 100, 500 and 3000 μg/mL per well, respectively (in 20 μl) were pipetted into 96-well micro-titer plates. Then 160 μl PAM reaction buffer (100 mM Tris-HCl, 6.25 μM CuSO4, 62.5 μM amastatin, 250 μM leupeptin, 36 ng/mL ADM-Gly) with varying L-ascorbate concentrations was added to the wells and incubated for 15 min. Afterwards the reaction was started by addition of 20 μl of Li-Heparin plasma, containing native PAM Immediately after addition of plasma, 100 μl from each well were removed and inactivated by addition of EDTA (20 mM final concentration) to generate a t=0 minutes reaction point. Inactivated and non-inactivated samples were incubated for 40 minutes at 37° C. and the reaction in non-inactivated samples was stopped as described above. For quantification of produced ADM-NH2 the Sphingotest® bio-ADM Kit (Weber et al. 2017) was utilized according to manufacturer's manual. The ADM maturation activity (AMA) was calculated according to equation 1 (DF=dilution factor of sample matrix).

For data set [3] the following is noted: Geven et al. 2017; cited from earlier work.

Where two headings read alike, the source gives them in different places.

On to “HAM8101: humanized N-terminal anti-ADM antibody, heavy chain SEQ ID No. 35, light chain SEQ ID No. 36”, for which, in the data set on recombinant human PAM (10 μg/mL antibody, 40 minutes, 37° C., 2 mM L-Ascorbate), the “PAM activity compared to the reaction without antibody addition (set at 100%)” value is 233%. For the same substance, the “influence on conversion of ADM-Gly to bio-ADM by PAM” value in the data set on recombinant human PAM (antibody 0-100 μg/mL, FIG. 7) is listed as “significant accelerating effect”. For the same substance, in data set [1] (healthy human individuals, 0.5, 2, 8 mg/kg i.v., FIG. 10), the “time within which ADM-values rapidly increased after administration” value is at most 1.5 h. Moreover, in data set [1] (healthy male subjects, single i.v. dose 0.5, 2, 8 mg/kg), the “safety: heart rate, mean arterial pressure, peripheral oxygen saturation, temperature” value is reported as “did not influence heart rate, mean arterial pressure, peripheral oxygen saturation or temperature”. In data set [1] (healthy male subjects, single i.v. dose 0.5, 2, 8 mg/kg versus placebo), the “routine haematological and biochemical safety laboratory measurements” value was “no significant differences between groups”. The “ADM-Gly/bioADM Ratio” value in data set [2] (Healthy HAM8101 treated (1 h)) is listed as 0.61; in data set [2] (Healthy HAM8101 treated (4 h)), 0.33. Also, the “ratio of ADM-Gly/bio-ADM” value in data set [2] (group 1 (0.5 mg/kg), after 1 h, FIG. 12) is reported as “approximately 0.75”; in data set [2] (group 1 (0.5 mg/kg), after 24 hours), “No further change”; in data set [2] (group 1 (0.5 mg/kg), four hours after administration), “approximately 0.38”; in data set [2] (group 2 (2 mg/kg), after 1 h), around 0.63; in data set [2] (group 2 (2 mg/kg), after 24 hours), “No further change”; in data set [2] (group 2 (2 mg/kg), four hours after administration), around 0.25. In addition, the “ratio of ADM-Gly/bio-ADM” value in data set [2] (group 3 (8 mg/kg), after 1 h) is around 0.43; in data set [2] (group 3 (8 mg/kg), after 24 hours), “approximately 0.5”; in data set [2] (group 3 (8 mg/kg), four hours after administration), “approximately 0.38”. Also, the values for the MR-proADM/bio-ADM ratio with MR-proADM/bio-ADM ratio (Healthy HAM8101 treated (1 h)) and with MR-proADM/bio-ADM ratio (Healthy HAM8101 treated (4 h)) were 44.6 and 42.4, respectively. In addition, the “increase of the bio-ADM formation of PAM” value with native PAM (100 μg/mL of HAM8101 in the amidation assay, Li-Heparin plasma) is 40%. Moreover, the “effect on the amidation for each ascorbate concentration assayed” value in the data set on native PAM (HAM8101 0-3000 μg/mL) is reported as “concentration dependent positive effect on the amidation”. In data set [3], the “safety and tolerability, phase I study” value is listed as “no serious adverse events were observed”.
